Where a name gives a salt, the structure may show the parent alone.
Tests used:
[1] = tested on: patients with solid tumors or lymphomas; conditions: cited from earlier work
[2] = tested on: high‐risk MDS; test: Treatment response in participants with high‐risk MDS (2006 International Working Group criteria); assay type: in vivo, human; conditions: Full Analysis Set
Experimental: Treatment efficacy was assessed according to the 2017 European Leukemia Net recommendations for AML[23] and the 2006 International Working Group response criteria for MDS.[24] In participants with AML, efficacy outcomes included complete remission (CR), CR with incomplete blood count recovery (CRi), composite complete remission (CRc; CR + CRi), morphologic leukemia‐free state (MLFS), partial remission (PR), overall response rate (CRc + MLFS+PR), stable disease (SD), and treatment failure. Bone marrow biopsies/aspirates were obtained from all participants with AML on Day 1 of Cycles 2 and 3 and once every cycle until response and on Day 1 of Cycles 6, 9, and 12 in responding participants.

For CC1(C)CCC2(CC1)N[C@@H](C(=O)N[C@@H]1CC[C@@H](C(N)=O)OC1)[C@H](c1ccnc(Cl)c1F)[C@]21C(=O)Nc2cc(Cl)ccc21 [Milademetan monotherapy, milademetan tosylate hydrate], the DLT observed ([1]; 120 mg QD 21/28, phase 1 studies in the United States and Japan) is given as “thrombocytopenia and nausea”, the MTD ([1]; US study in solid tumors, QD 3/14 × 2 schedule) is given as 260 mg and the “MDS: Marrow CR” value [2] is given as 1 (11%) n (%). For the same compound, the “MDS: SD” value [2] was 2 (22%) n (%).
